For experiment [1], the system named is EB-3 (Burkitt's Lymphoma). Briefly: Bliss excess, mean over the matrix (fraction); higher = more synergy. The essentials: (§1)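 Bliss excess equals the observed combination effect minus the expected value EA + EB − EA·EB, where EA and EB are the effects of each agent alone. Combination Emax is the second-highest inhibition within the matrix. Inhibition was scaled from CellTiter-Glo 2.0 luminescence, with 0 set by vehicle wells and 1 by blank wells, after 72 hours of two-drug dosing of cells plated in 1536-well plates.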

The test system of experiment [2] is OCI-AML5 (Acute Myeloid Leukemia). The experiment is described as above. Put shortly:
as §1

The test system of experiment [3] is AsPC-1 (Pancreatic Carcinoma). Briefly: combination Emax (second highest fraction inhibited in the dose matrix, 72 h); higher = more inhibition; extreme values may be limits of the assay. The essentials:
as §1

Experiment [4] deals with Becker (Low Grade Glioma). Described as above. The essentials:
as §1

For experiment [5], the system named is CML-T1 (Chronic Myelogenous Leukemia). Described as above. The essentials: as §1
Experiment [6] relates to Caov-3 (Ovarian Carcinoma). The description is as above. Put shortly: as §1
Another experiment relates to HuO-3N1 (Osteosarcoma). Described as above. Put shortly:
as §1

The test system of experiment [7] is KYSE-70 (Esophageal Squamous Cell Carcinoma). The description is as above. The essentials: as §1
The test system of experiment [8] is LAMA-84 (Chronic Myelogenous Leukemia). The experiment is described as above. The essentials:
as §1

Experiment [9] relates to NCI-H1155 (Non-Small Cell Lung Carcinoma). The description is as above. The essentials:
as §1

Experiment [10] deals with OV-90 (Ovarian Carcinoma). The experiment is described as above. Put shortly:
as §1

Experiment [11] relates to OVTOKO (Ovarian Carcinoma). The experiment is described as above. The essentials:
as §1

Experiment [12] has as its system PANC-02-03 (Pancreatic Carcinoma). Described as above. Put shortly: as §1
Experiment [13] has as its system PC-14 (Lung Adenocarcinoma). Described as above. The essentials: as §1
Experiment [14] relates to RL95-2 (Endometrial Carcinoma). The description is as above. Put shortly:
as §1

The subject of experiment [15] is RMG-I (Ovarian Carcinoma). The description is as above. Put shortly:
as §1

Experiment [16] has as its system RPMI-8866 (Chronic Myelogenous Leukemia). Described as above. Put shortly:
as §1

The test system of another experiment is RT4 (Bladder Carcinoma). The description is as above. Put shortly: as §1
For experiment [17], the system named is SJRH30 (Rhabdomyosarcoma). The description is as above. Put shortly: as §1
Experiment [18] relates to SW684 (Other Solid Carcinomas). The experiment is described as above. The essentials: as §1

Turning to `Cc1c2c(nn1C)CSCc1cc(n(C)n1)CSc1cc(c3ccccc3c1)OCCCc1c(C(=O)O)n(C)c3c-2c(Cl)ccc13` [AZD5991] + C=CCn1c(=O)c2cnc(Nc3ccc(N4CCN(C)CC4)cc3)nc2n1-c1cccc(C(C)(C)O)n1 [AZD1775] (first compound max 1 µM, partner max 1 µM), the values for the Bliss excess in [1] and in experiment [2] were -0.0242 and -0.0036, respectively. For the same compound, the “combination Emax” value came to 0.369 in experiment [3]; 0.224 in experiment [4]; 0.938 in experiment [5]; 0.775 in experiment [6]; 1 in the experiment with HuO-3N1 (Osteosarcoma); 0.655 in experiment [7]. Further, the “combination Emax” value came out at 0.968 in experiment [8]; 0.786 in [9]; 0.521 in experiment [10]; 0.618 in [11]; 0.594 in experiment [12]; 0.921 in experiment [13]. Further, the “combination Emax” value in experiment [14] came to 1; in experiment [15] it was 0.375; in experiment [16], 0.978; in the experiment with RT4 (Bladder Carcinoma) it was 0.53; in experiment [17] it was 0.912; in experiment [18], 0.273.

With `CN(CCO)CC[C@H](CSc1ccccc1)Nc1ccc(S(=O)(=O)NC(=O)c2ccc(N3CCC([C@@H](O)c4ccccc4-c4ccc(Cl)cc4)CC3)cc2)cc1S(=O)(=O)C(F)(F)F` [AZD4320] + Cc1cc2ncnn2cc1Nc1ncc2c(n1)n(C1CCOCC1)c(=O)n2C [AZD7648] (first compound max 1 µM, 7x7, partner max 10 µM), the Bliss excess in experiment [1] was -0.0076; in [2], 0.0193. For the same compound, the “combination Emax” value is 0.566 in [3]; 0.124 in experiment [4]; 0.99 in [5]; 0.551 in experiment [6]; 0.139 with HuO-3N1 (Osteosarcoma); 0.132 in experiment [7]. The “combination Emax” value in experiment [8] was 0.752; in experiment [9], 0.772; in experiment [10], 0.6; in [11] it was 0.361; in experiment [12] it was 0.109; in experiment [13], 0.203. Moreover, the “combination Emax” value was 0.0598 in experiment [14]; 0.826 in experiment [15]; 0.665 in experiment [16]; 0.355 in the experiment on RT4 (Bladder Carcinoma); 0.147 in [17]; 0.184 in experiment [18].

Take `Cc1cc2ncnn2cc1Nc1ncc2c(n1)n(C1CCOCC1)c(=O)n2C` [AZD7648] + C=CCn1c(=O)c2cnc(Nc3ccc(N4CCN(C)CC4)cc3)nc2n1-c1cccc(C(C)(C)O)n1 [AZD1775] (first compound max 10 µM, partner max 1 µM): the Bliss excess in experiment [1] is -0.102; in experiment [2] it was 0.0086. Besides, the “combination Emax” value in experiment [3] was 0.314; in experiment [4], 0.311; in experiment [5] it was 0.941; in experiment [6] it was 0.727; in the experiment with HuO-3N1 (Osteosarcoma), 0.417; in experiment [7], 0.566. Further, the “combination Emax” value in experiment [8] was determined as 0.953; in experiment [9], 0.485; in experiment [10] it was 0.409; in experiment [11] it was 0.561; in [12], 0.515; in experiment [13], 0.86. The “combination Emax” value in [14] is 0.408; in experiment [15] it was 0.471; in experiment [16], 0.971; in the experiment with RT4 (Bladder Carcinoma), 0.446; in experiment [17] it was 0.833; in experiment [18], 0.32.

As to `COc1cccc(OCCCN)c1-c1cc(Nc2cnc(C#N)cn2)n[nH]1` [Prexasertib] + O=C(c1cc(Cc2n[nH]c(=O)c3ccccc23)ccc1F)N1CCN(C(=O)C2CC2)CC1 [Olaparib] (first compound max 1 µM, 7x7, partner max 10 µM), the Bliss excess in experiment [1] was -0.195; in [2], -0.045. Also, the “combination Emax” value stood at 0.332 in [3]; 0.704 in experiment [4]; 0.978 in [5]; 0.855 in experiment [6]; 0.524 in the experiment with HuO-3N1 (Osteosarcoma); 0.626 in experiment [7]. In addition, the “combination Emax” value turned out to be 0.973 in experiment [8]; 0.927 in experiment [9]; 0.558 in [10]; 0.52 in experiment [11]; 0.502 in [12]; 0.848 in [13]. Besides, the “combination Emax” value was found to be 0.882 in [14]; 0.515 in experiment [15]; 1 in [16]; 0.237 with RT4 (Bladder Carcinoma); 0.868 in experiment [17]; 0.43 in experiment [18].

For the compound `COc1cccc(OCCCN)c1-c1cc(Nc2cnc(C#N)cn2)n[nH]1` [Prexasertib] + CN(C)CCCOc1ccc(-c2ccc3ncc4c(c3c2)n(C2CCOCC2)c(=O)n4C)cn1 [AZD0156] (first compound max 1 µM, 7x7, partner max 1 µM), the Bliss excess was 0.0498 in [1] and 0.0781 in experiment [2]. The “combination Emax” value in experiment [3] amounted to 0.444; in experiment [4], 0.711; in experiment [5], 0.987; in [6], 0.806; with HuO-3N1 (Osteosarcoma), 0.48; in experiment [7], 0.618. Further, the “combination Emax” value in experiment [8] stood at 0.988; in experiment [9], 0.885; in [10] it was 0.532; in experiment [11] it was 0.647; in experiment [12], 0.609; in [13], 0.85. The “combination Emax” value stood at 0.888 in [14]; 0.698 in experiment [15]; 1 in [16]; 0.304 in the experiment on RT4 (Bladder Carcinoma); 0.94 in [17]; 0.42 in experiment [18].

As for `CC1(C)CCC(CN2CCN(c3ccc(C(=O)NS(=O)(=O)c4ccc(NCC5CCOCC5)c([N+](=O)[O-])c4)c(Oc4cnc5[nH]ccc5c4)c3)CC2)=C(c2ccc(Cl)cc2)C1` [Venetoclax] + Cn1cnc2c(F)c(Nc3ccc(Br)cc3Cl)c(C(=O)NOCCO)cc21 [Selumetinib] (first compound max 1 µM, 7x7, partner max 3 µM), the Bliss excess in [1] was -0.0241; in [2] it was 0.111. In addition, the “combination Emax” value in experiment [3] was found to be 0.403; in [4], 0.215; in [5], 0.957; in experiment [6], 0.603; with HuO-3N1 (Osteosarcoma), 0.146; in experiment [7], 0.19. In addition, the “combination Emax” value in [8] amounted to 0.707; in experiment [9] it was 0.371; in experiment [10] it was 0.571; in [11], 0.163; in experiment [12], 0.367; in experiment [13] it was 0.22. Besides, the “combination Emax” value in experiment [14] amounted to 0.332; in experiment [15], 0.267; in experiment [16] it was 0.293; in the experiment with RT4 (Bladder Carcinoma), 0.304; in [17], 0.1; in experiment [18] it was 0.191.
